Test results taken from patent publication US6500843B2, “Inhibitors of rotamase enzyme activity” (GPI NIL Holdings, Inc., priority 1995, dated 2002).
Read-outs that look alike come from different tables or passages of the source.

What was measured:
[1] = biological target: rotamase activity of FKBP-12 (Homo sapiens, UniProt P62942); test: Rotamase inhibition (FKBP-12); format: biochemical
[2] = system: chick dorsal root ganglion explant cultures; test: Neurite outgrowth in chick dorsal root ganglion explant cultures; format: cell-based; details: for EC50: Gallus gallus
PC-12 cells = test: Neurite outgrowth in PC-12 cells in the presence of NGF; details: for Concentration for maximal effects on neurite extension: 4 days; for EC50: Rattus norvegicus
calcineurin = test: Calcineurin inhibition; format: biochemical; details: YES/NO
recombinant FKBP-12 = recombinant FKBP-12 (Homo sapiens, UniProt P62942); test: Inhibition of 3H-FK506 binding to recombinant FKBP-12; details: read-out: [3H]-FK506-FKBP12 (IC50)
Sequence of recombinant FKBP-12 (P62942 whole entry, species assumed): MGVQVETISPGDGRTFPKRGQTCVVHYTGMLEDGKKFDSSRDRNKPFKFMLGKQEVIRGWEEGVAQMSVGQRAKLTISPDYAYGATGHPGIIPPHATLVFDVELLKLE

dorsal root ganglia = test: Neurite outgrowth in rat embryonic day 16 dorsal root ganglia explants; format: cell-based; details: no added NGF
Experimental: Stage E16 embryos were removed from pregnant Sprague-Dawley rats and the dorsal root ganglia dissected. Whole ganglia explants were cultured in collagen-coated 35 mm dishes (Falcon) using N2 medium (Dulbecco's Modified Eagle medium and Ham's F12 medium mixed 1:1 and supplemented with progesterone, selenium, insulin, putrescine, glucose, and penicillin-streptomycin) at 37° C. in a 15% CO2 environment. […] Ganglia were observed every 2-3 days under phase-contrasting using an Olympus IMT-2 inverted microscope, and measurements of axon length were made. The axonal field of each ganglion was divided into four quadrants, and the length of the longest axons in each quadrant was measured in microns using an eye-piece micrometer. The average of these measurements was taken as the axon length for the ganglion.

FKBP = FKBP (Rattus norvegicus, UniProt Q62658); test: [3H]FK506 binding to PC-12 cell homogenates; details: untreated PC-12 cell homogenates, 250 pM radioligand
Sequence of FKBP (Q62658 whole entry): as the sequence (P62942 whole entry, species assumed) above, with P10S, M50T, T76I counted along it

[3] = system: Sprague-Dawley rats, sciatic nerve crush; test: Sciatic nerve axotomy (crush) model of nerve regeneration; format: in vivo, rat
Experimental: Six-week old male Sprague-Dawley rats were anesthetized, and the sciatic nerve exposed and crushed, at the level of the hip, by forceps. Test compounds or vehicle were administered subcutaneously just prior to the lesion and daily for the following 18 days. Sections of the sciatic nerve were stained with Holmes silver stain to quantify the number of axons, and Luxol fast blue to quantify the level of myelination. Eighteen days after lesion, there was a significant decrease in the number of axons (50% decrease as compared to non-lesioned control) and degree of myelination (90% decrease as compared to non-lesioned control) in animal treated with vehicle.

[4] = Table I, read-out: Rotamase Inhibition Ki
[5] = Neuron, Table I, cultured sensory neurons, read-out: Neutrophic ED50 Chick DRGs
[6] = PC-12, 96 h, read-out: Half-maximal stimulation of neurite extension
[7] = 0.1 ng/ml NGF, 48 hr, read-out: EC50 for stimulating nerve outgrowth in the ganglia
[8] = 30 mg/kg s.c. daily, 18 days after lesion
[9] = s.c. daily for 18 days following the lesion

Sequence of rotamase activity of FKBP-12 (P62942 whole entry): as the sequence (P62942 whole entry, species assumed) above

Row | Ki [1, 4] | Compound | EC50 [2, 5] | other results
1 | 1300 nM | CCOC(=O)C1CCCCN1C(=O)C(=O)C(C)(C)CC (stereo not shown) [Example 41] |  | 
2 | 39 nM | CCC(C)(C)C(=O)C(=O)N1CCCCC1C(=O)OCC=Cc1ccccc1 (stereo not shown) [Example 92] | 90 nM | 
3 | 1800 nM | CCC(C)(C)C(=O)C(=O)N1CCCCC1C(=O)OCC=Cc1ccc(Cl)c(Cl)c1 (stereo not shown) [Example 90] | 2500 nM | 
4 | 103 nM | COc1ccc(CCCCOC(=O)[C@@H]2CCCCN2C(=O)C(=O)C2CCCCC2)cc1 [Example 105] |  | 
5 | 15 nM | CCC(C)(C)C(=O)C(=O)N1CCCCC1C(=O)OC(CCCc1ccccc1)CCc1ccc(OC)cc1 (stereo not shown) [Example 101] | 0.17 nM | 
6 | 740 nM | O=C(C(=O)N1CCCC[C@H]1C(=O)OCCCc1ccccc1)c1ccccc1 [Example 96] |  | 
7 | 28 nM | CCC(C)(C)C(=O)C(=O)N1CCCCC1C(=O)OCC=Cc1cc(OC)c(OC)c(OC)c1 (stereo not shown) [Example 91] | 200 nM | 
8 | 140 nM | COc1ccc(CCCCOC(=O)[C@@H]2CCCCN2C(=O)Cc2cc(OC)c(OC)c(OC)c2)cc1 [Example 6] | 25 nM | 
9 | 760 nM | O=C(C(=O)N1CCCC[C@H]1C(=O)OCCCC1CCCCC1)C1CCCCC1 [Example 106] | 1 nM | 
10 | 12 nM | CC1(C)COC(=O)CCCCCCCCCOC(=O)[C@@H]2CCCCN2C(=O)C1=O [Example 19] | 0.017 nM | 
11 | 210 nM | O=C(C(=O)N1CCCC[C@H]1C(=O)OCCCc1ccccc1)C1CCCCC1 [Example 107] | 0.82 nM | 
12 | > 10000 nM | CCOC(=O)C1CCCCN1C(=O)C(C)=O (stereo not shown) [Example 36] |  | 
13 | 130 nM | CCC(C)(C)C(=O)C(=O)N1CCCC[C@H]1C(=O)OCCCc1cccnc1 [Example 98] | 75 nM | 
14 | 165 nM | COc1ccc(CCCCOC(=O)[C@@H]2CCCCN2C(=O)C(=O)c2ccccc2)cc1 [Example 95] |  | 

More lines, now with the values behind:

Row | Compound | Ki [1, 4] | EC50 [2, 5] | other results
15 | CCC(C)(C)C(=O)C(=O)N1CCCC[C@H]1C(=O)OCCCc1cc(OC)ccc1OC [Example 93] | 75 nM |  | 
16 | COC1CC2CCC(C)C(O)(O2)C(=O)C(=O)N2CCCCC2C(=O)OC(C(C)CC2CCC(O)C(OC)C2)CC(=O)C(C)C=C(C)C(O)C(OC)C(=O)C(C)CC(C)C2C=CC(C=C1C)n1c(=O)n(-c3ccccc3)c(=O)n12 (stereo not shown) [WAY-124466] |  |  | Ki ([1]; Table 2, read-out: Rotamase (Ki)): 12 nM; Concentration for maximal effects on neurite extension (PC-12 cells; 0.5 ng/ml NGF): 100-1,000 nM; EC50 (PC-12 cells; [6]): ~10 nM; Potentiation of neurite extension elicited by NGF (PC-12 cells; picomolar concentrations, 0.5 ng/ml NGF, 4 days (FIG. 15)): potentiate neurite extension; Calcineurin Inhibition (calcineurin): fails to inhibit calcineurin; Potentiation of NGF-dependent neurite production in sensory ganglia ([2]; 100 nM, plus or minus 0.1 ng/ml NGF, 48 hrs (FIG. 18)): potentiate NGF-dependent neurite production; IC50 (recombinant FKBP-12; Table 2): 10 nM
17 | CCC(C)(C)C(=O)C(=O)N1CCCC[C@H]1C(=O)OCCCc1cc(OC)ccc1OC [Example 102] | 12 nM | 205 nM | Neurite outgrowth in photomicrographs ([2]; 1 pM, 100 pM and 100 nM (FIGS. 19-21)): promoting neurite outgrowth
18 | CCC(C)(C)C(=O)C(=O)N1CCCC[C@H]1C(=O)OCCCCc1ccc(OC)cc1 [Example 100] | 60 nM |  | 
19 | C=CC[C@@H]1/C=C(\C)C[C@H](C)C[C@H](OC)[C@H]2O[C@@](O)(C(=O)C(=O)N3CCCC[C@H]3C(=O)O[C@H](/C(C)=C/[C@@H]3CC[C@@H](O)[C@H](OC)C3)[C@H](C)[C@@H](O)CC1=O)[C@H](C)C[C@@H]2OC [FK506] |  |  | Concentration producing a noticeable increase in growth (dorsal root ganglia): 1 nM; Concentration producing detectable augmentation of neurite outgrowth (dorsal root ganglia): 1 pM; Concentration required for maximal outgrowth (dorsal root ganglia): 1 pM; Maximal enhancement of neurite outgrowth (PC-12 cells; 0.5 ng/ml NGF, 100 nM drug, 96 hours): 2.5 fold; Concentration for maximal effects on neurite extension (PC-12 cells; 0.5 ng/ml NGF): 5 to 100 nM; Concentration eliciting the same maximal outgrowth observed with 50 ng/ml NGF (PC-12 cells; 1 ng/ml NGF, 48 hr): 1 nM; Reduction of the NGF concentration needed to elicit maximal outgrowth (PC-12 cells; FK506 100 nM, 48 hr): 20-50 fold; EC50 (PC-12 cells; PC-12, 48 h, read-out: Half maximal effects on neurite outgrowth): ~0.1 nM; EC50 (PC-12 cells; [6]): 0.5 nM; EC50 (PC-12 cells; PC-12, read-out: Neurite Outgrowth (ED50)): 0.5 nM; EC50 [2, 7]: 1 to 2 nM; IC50 (FKBP): 1 to 2 nM
20 | CCC(C)(C)C(=O)C(=O)N1CCCC[C@H]1C(=O)OCCCc1ccc2c(c1)OCO2 [Example 103] | 120 nM | 3 nM | 
21 | CCC(C)(C)C(=O)C(=O)N1CCCCC1C(=O)OCCCc1cc(OC)c(OC)c(OC)c1 (stereo not shown) [Example 13] | 25 nM |  | Axon Number (% Control) [3, 8]: 100 % Control; Myelin Level [3, 8]: 50; Decrease in axon number as compared to non-lesioned control [3, 9]: 5%; Decrease in degree of myelination as compared to control [3, 9]: 50%; IC50 (recombinant FKBP-12; Table 3): 4000 nM
22 | CCC(C)(C)C(=O)C(=O)N1CCCC[C@H]1C(=O)OCCCc1ccc2c(c1)OCO2 [Example 94] | 70 nM |  | 
23 | NGF: nerve growth factor |  |  | NGF concentration for maximal augmentation of neurite outgrowth (PC-12 cells; 48 hr): 50 to 100 ng/mL; NGF concentration for half maximal outgrowth in the presence of FK506 (PC-12 cells; FK506 100 nM, 48 hr): 0.1 ng/mL; Neurite extension as % of maximal effects evident at 50 ng/ml NGF (PC-12 cells; NGF alone at 0.1 ng/ml): about 15%
24 | CCC(C)(C)C(=O)C(=O)N1CCCC[C@H]1C(=O)OC(CCCCc1ccccc1)c1ccccc1 (stereo partly shown) [Example 104] | 20 nM |  | 
25 | COc1ccc(CCCCOC(=O)[C@@H]2CCCCN2C(=O)C(=O)c2cc(OC)c(OC)c(OC)c2)cc1 [Example 9] |  | 0.03 nM | 
26 | CCOC(=O)C1CCCCN1C(=O)C(=O)c1ccccc1 (stereo not shown) [Example 50] | > 10000 nM |  | 
27 | CCC(C)(C)C(=O)C(=O)N1CCCC[C@H]1C(=O)OC(CCCc1ccccc1)CCCc1ccccc1 [Example 99] |  | 5 nM | 
28 | CO[C@H]1C[C@@H]2CC[C@@H](C)[C@@](O)(O2)C(=O)C(=O)N2CCCC[C@H]2C(=O)O[C@H]([C@H](C)C[C@@H]2CC[C@@H](O)[C@H](OC)C2)CC(=O)[C@H](C)/C=C(\C)[C@@H](O)[C@@H](OC)C(=O)[C@H](C)C[C@H](C)/C=C/C=C/C=C/1C [Rapamycin] |  |  | Concentration for maximal effects on neurite extension (PC-12 cells; 0.5 ng/ml NGF): 10 to 100 nM; Stimulation of neurite outgrowth (PC-12 cells; 0.1-0.5 ng/ml NGF, 100 nM drug, 96 hours): 3-4 fold; EC50 (PC-12 cells; [6]): 0.2 to 0.4 nM; EC50 [2, 7]: 1 nM
